Assay results from patent US6835742B2, “Synergistic effect of amlodipine and atorvastatin on cholesterol crystal formation inhibition and aortic endothelial cell nitric oxide release” (priority 2000, dated 2004).

How the values were obtained:
[1] = Small angle x-ray diffraction of cholesterol-enriched reconstituted membranes (cholesterol domain formation); type: physicochemical; settings: for d-space of surrounding sterol-poor membrane region: 5° C., 74% relative humidity
coronary artery disease = settings: cited from earlier work
stable and advanced CAD = settings: compared to angioplasty with usual medical care; cited from earlier work
[2] = system: rabbit aorta endothelial cell; experiment: NO release from a single rabbit aorta endothelial cell (porphyrinic sensor); type: cell-based; settings: after injection of atorvastatin; 37° C.
Method: NO release measurements. All measurements presented were recorded in vitro. NO release was measured directly from a single endothelial cell in the rabbit aorta. Measurements were done in Hank's balance solution at 37° C. […] The sensor operated with a three-electrode system [sensor working electrode, platinum wire (0.1 mm) counter electrode, and saturated calomel electrode (SCE—reference electrode)]. The three electrodes were connected to a potentiostat/galvanostat PAR273. Data were acquired with the use of an IBM computer with custom software. […] SCE. The release of NO was initiated by the injection of potential agonists of endothelial NO synthase (eNOS) using a temtoinjector placed in the controlled distance from the endothelial cell. Two different agonists were tested: amlodipine and atorvastatin. The different concentrations of these two compounds applied simultaneously were also tested.

[3] = 1.1:1 cholesterol to phospholipid mole ratio, 5° C. (FIG. 5)
[4] = 1.2:1 cholesterol to phospholipid mole ratio, 5° C. (FIG. 4)
[5] = 1.2:1 cholesterol to phospholipid mole ratio

| Compound | effect on cholesterol domain formation [1, 3] | effect on cholesterol domain formation [1, 4] | d-space of surrounding sterol-poor membrane region [1, 5] [Å] | progression of carotid atherosclerosis (coronary artery disease; B-mode ultrasonographic assessments) | reduction in documented angina (coronary artery disease; compared to placebo) [%] | reduction in the need for revascularization (coronary artery disease; compared to placebo) [%] | reduction of overall incidence of cardiovascular events (stable and advanced CAD) [%] | time to a first ischemic event (stable and advanced CAD) | maximum NO concentration released [2] [nmol/L] | d-space of surrounding sterol-poor membrane region ([1]; 1.1:1 cholesterol to phospholipid mole ratio) [Å] | width of cholesterol monohydrate crystalline domains ([1]; samples containing verapamil, unaffected by temperature (93% relative humidity) or relative humidity (20° C.)) [Å] |
| --- | --- | --- | --- | --- | --- | --- | --- | --- | --- | --- | --- |
| CCOC(=O)C1=C(COCCN)NC(C)=C(C(=O)OC)C1c1ccccc1Cl (centres unmarked) [AML, Amlodipine besylate] | no effect on domain formation | did not interfere with domain formation | 57.8 | significant slowing | 33 | 42 | – | – | – | – | – |
| CC(C)c1c(C(=O)Nc2ccccc2)c(-c2ccccc2)c(-c2ccc(F)cc2)n1CC[C@@H](O)C[C@@H](O)CC(=O)[O-].CC(C)c1c(C(=O)Nc2ccccc2)c(-c2ccccc2)c(-c2ccc(F)cc2)n1CC[C@@H](O)C[C@@H](O)CC(=O)[O-].[Ca+2] [AT, atorvastatin calcium] | no effect on domain formation | did not interfere with domain formation | 56.8 | – | – | – | 36 | significantly delayed | 20 ± 5 | 55.8 | – |
| COc1ccc(CCN(C)CCCC(C#N)(c2ccc(OC)c(OC)c2)C(C)C)cc1OC (centres unmarked) [verapamil] | – | – | – | – | – | – | – | – | – | – | 34.0 |
